Test results published in patent US20180193490A1, “Beta Amyloid Staging” (GE HEALTHCARE LIMITED, priority 2015, published 2018).

Biological target: T1, beta amyloid (Aβ) plaques in the brain (Homo sapiens, UniProt P05067)
T1 construct: from tissue; host or cells: brain of living subjects (cortex and striatum), in vivo PET
Test: GE067-026 blinded image evaluation (BIE) of amyloid PET images, separate cortical and striatal assessment
Assay type: in vivo
Details: for Subjects classified C+S+ by BIE assessment / Subjects classified C+S− by BIE assessment / Subjects classified C−S+ by BIE assessment / Subjects classified C−S− by BIE assessment: GE067-026 data set, N = 106; for BIE assessments C+S+ against striatal plaque count by histopathology / BIE assessments C+S− against striatal plaque count by histopathology / BIE assessments C−S− against striatal plaque count by histopathology: N = 108 subjects and 5 readers
From the text: The data presented explore the use of separate cortical and striatal assessments to aid the Thal (amyloid) phase assignation to in life subjects. The data sets used are from a Flutemetamol (18F) Injection Phase III clinical trial. In this trial PET image assessment was compared to histopathological assessment of amyloid pathology from autopsy. The available data for a preliminary analysis of amyloidosis staging using separate cortical and striatal assessments comes from two sources: • (1) The blinded image evaluations (BIEs) from the GE067-026 clinical trial (NCT02090855) • (2) Provisional SUVR determinations in post-hoc analyses of the GE067-026 data During the BIEs for the above trial, 5 independent readers assessed each of 106 amyloid PET images as abnormal or normal. These dichotomous assessments formed the primary analysis for the trial. However, the individual cortical and striatal assessments were recorded and were re-analysed to estimate the cortical and striatal status separately. For each subject, each of the five readers rated 4 cortical regions and 1 striatal region as Aβ positive or Aβ negative.^1 ^1 All regions assessed are bilateral. Readers assessed images bilaterally—left and right hemispheres—but recoded only one result for each of the 5 bilateral regions. Applying the same general principle that if any of the 4 cortical regions are positive this confers cortical positivity, separate cortical and striatal assessments were determined for each case.

T1 sequence (P05067 672-713 limits assumed): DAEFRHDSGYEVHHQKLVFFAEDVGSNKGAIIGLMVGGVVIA

- Share of C+S− cases that were phase 3 (BIE majority assessment): 75%
- Cases identified as C+S− by Majority assessment (BIE majority, all Thal phases): 6
- Subjects classified C+S+ by BIE assessment (Reader A): 73
- Subjects classified C+S− by BIE assessment (Reader A): 5
- Subjects classified C−S+ by BIE assessment (Reader A): 1
- Subjects classified C−S− by BIE assessment (Reader A): 28
- Subjects classified C+S+ by BIE assessment (Reader B): 68
- Subjects classified C+S− by BIE assessment (Reader B): 4
- Subjects classified C−S+ by BIE assessment (Reader B): 0
- Subjects classified C−S− by BIE assessment (Reader B): 35
- Subjects classified C+S+ by BIE assessment (Reader C): 64
- Subjects classified C+S− by BIE assessment (Reader C): 6
- Subjects classified C−S+ by BIE assessment (Reader C): 0
- Subjects classified C−S− by BIE assessment (Reader C): 37
- Subjects classified C+S+ by BIE assessment (Reader D): 35
- Subjects classified C+S− by BIE assessment (Reader D): 38
- Subjects classified C−S+ by BIE assessment (Reader D): 0
- Subjects classified C−S− by BIE assessment (Reader D): 34
- Subjects classified C+S+ by BIE assessment (Reader E): 70
- Subjects classified C+S− by BIE assessment (Reader E): 5
- Subjects classified C−S+ by BIE assessment (Reader E): 2
- Subjects classified C−S− by BIE assessment (Reader E): 30
- BIE assessments C+S+ against striatal plaque count by histopathology (STR Plaques Frequent): 289
- BIE assessments C+S− against striatal plaque count by histopathology (STR Plaques Frequent): 37
- BIE assessments C−S− against striatal plaque count by histopathology (STR Plaques Frequent): 23
- BIE assessments C+S+ against striatal plaque count by histopathology (STR Plaques Moderate): 18
- BIE assessments C+S− against striatal plaque count by histopathology (STR Plaques Moderate): 17
- BIE assessments C−S− against striatal plaque count by histopathology (STR Plaques Moderate): 24
- BIE assessments C+S+ against striatal plaque count by histopathology (STR Plaques None): 0
- BIE assessments C+S− against striatal plaque count by histopathology (STR Plaques None): 1
- BIE assessments C−S− against striatal plaque count by histopathology (STR Plaques None): 98
- BIE assessments C+S+ against striatal plaque count by histopathology (STR Plaques Sparse): 0
- BIE assessments C+S− against striatal plaque count by histopathology (STR Plaques Sparse): 1
- BIE assessments C−S− against striatal plaque count by histopathology (STR Plaques Sparse): 19
- Cases categorised C+S+ by BIE majority (Thal (amyloid) Phase 0): 0
- Cases categorised C+S− by BIE majority (Thal (amyloid) Phase 0): 0
- Cases categorised C−S+ by BIE majority (Thal (amyloid) Phase 0): 0
- Cases categorised C−S− by BIE majority (Thal (amyloid) Phase 0): 7
- Cases categorised C+S+ by BIE majority (Thal (amyloid) Phase 1): 0
- Cases categorised C+S− by BIE majority (Thal (amyloid) Phase 1): 0
- Cases categorised C−S+ by BIE majority (Thal (amyloid) Phase 1): 0
- Cases categorised C−S− by BIE majority (Thal (amyloid) Phase 1): 10
- Cases categorised C+S+ by BIE majority (Thal (amyloid) Phase 2): 0
- Cases categorised C+S− by BIE majority (Thal (amyloid) Phase 2): 0
- Cases categorised C−S+ by BIE majority (Thal (amyloid) Phase 2): 0
- Cases categorised C−S− by BIE majority (Thal (amyloid) Phase 2): 5
- Cases categorised C+S+ by BIE majority (Thal (amyloid) Phase 3): 3
- Cases categorised C+S− by BIE majority (Thal (amyloid) Phase 3): 4
- Cases categorised C−S+ by BIE majority (Thal (amyloid) Phase 3): 0
- Cases categorised C−S− by BIE majority (Thal (amyloid) Phase 3): 7
- Cases categorised C+S+ by BIE majority (Thal (amyloid) Phase 4): 17
- Cases categorised C+S− by BIE majority (Thal (amyloid) Phase 4): 2
- Cases categorised C−S+ by BIE majority (Thal (amyloid) Phase 4): 0
- Cases categorised C−S− by BIE majority (Thal (amyloid) Phase 4): 5
- Cases categorised C+S+ by BIE majority (Thal (amyloid) Phase 5): 46
- Cases categorised C+S− by BIE majority (Thal (amyloid) Phase 5): 0
- Cases categorised C−S+ by BIE majority (Thal (amyloid) Phase 5): 0
- Cases categorised C−S− by BIE majority (Thal (amyloid) Phase 5): 0
SMILES: CNc1ccc(-c2nc3ccc(O)cc3s2)cc1F [Flutemetamol]
